Laboratory results: patent EP0233461B2, “4,5,6-Substituted-2-pyrimidinamines” (AMERICAN CYANAMID COMPANY, priority 1986, dated 1987)
Where a name gives a salt, the structure may show the parent alone.

test system: human basophils; assay: Inhibition of histamine release from immunologically stimulated human basophils; type: cell-based; conditions: Homo sapiens, concentration causing 50% inhibition of histamine release, by linear regression; active if IC50 ≦ 48 µM; read-out: IC50
Method: The blood is allowed to sediment at room temperature in two 50 ml polycarbonate centrifuge tubes until a sharp interface develops between the red cells and plasma (60-90 minutes). The plasma (top) layer from each tube is withdrawn by pipet and transferred to respective 50 ml polycarbonate tubes. The plasma is centrifuged for 8 minutes at 110X G at 4°C. The supernatant is carefully poured off as completely as possible and the cell button is resuspended in 2-3 ml of Tris-A buffer using a siliconized Pasteur pipet. The resuspension is accomplished by drawing the liquid gently in an out of the pipet, with the tip below the liquid until an even suspension of cells is obtained. Sufficient Tris-A buffer is then added to bring the volume in the tube to about 45 ml and the tube is centrifuged at 110X G for 8 minutes at 4°C. The supernatant is poured off and the cell button is resuspended and centrifuged as described above. The supernatant is poured off and the cell button is suspended in 2-3 ml of Tris-ACM buffer to make the final volume sufficient to allow addition to the reaction tubes. Reaction tubes containing anti-IgE or antigens, either alone or with test compound in a total volume of 0.2 ml are prepared and placed in a 37°C bath. The cells are warmed to 37°C and frequently swirled to ensure an even suspension, while 1.0 ml aliquots are added to each reaction tube. The tubes are then incubated for 60 minutes at 37°C, vortexing the tubes gently every 15 minutes to keep the cells evenly suspended. When the reaction is complete, the tubes are centrifuged at 4°C for 10 minutes at 1500 rpm to sediment the cells. […] Blanks and totals are included in each test. The blanks have cells and all reagents except antigen or anti-IgE. The totals contain 0.24 ml of 8% perchloric acid, one ml of cells and 0.2 ml of buffer. All samples are then centrifuged to remove the precipitate protein. […] The automated system consists of the following Technicon Autoanalyzer II components Sampler IV, Dual-Speed Proportioning Pump III, Fluoronephelometer with a narrow pass primary filter 7-60 and a secondary filter 3-74, Recorder, and Digital Printer. The manifold used is the one described by Siraganian vide supra, with the following modifications: the dialyzer is omitted; all pumping tubes pass through a single proportioning pump with large capacity and twice the volume of sample is taken for anaylsis. The automated chemistry consists of the following steps: Extraction from alkaline saline into butanol, back extraction into dilute hydrochloric acid by addition of heptane, reaction of histamine with o-phthaldialdehyde (OPT) at high pH and conversion of the OPT adduct to a stable fluorophore with phosphoric acid. The reaction product is then passed through the fluorometer. The full scale response is adjusted to 50 ng histamine base with a threshold sensitivity of approximately 0.5 ng. The instrument blank (wash) is substracted from the ng histamine of each sample. Then the ng histamine of each sample is divided by the mean of the three totals (cells lysed with perchloric acid) to obtain percent release. Control samples contain antigen but no test compound. Blank (or spontaneous release) samples contain neither antigen nor test compound. The mean of the blanks (three replicates) is subtracted from the percent release for controls and test compounds.

SMILES | IC50 [µM]
CC(=NO)c1ccc(Nc2nccc(-c3cccnc3)n2)cc1 [1-[4-[[4-(3-Pyridinyl)-2-pyrimidinyl]amino]phenyl]ethanone, oxime] | 11.4
Oc1ccccc1Nc1nccc(-c2cccnc2)n1 [2-[[4-(3-Pyridinyl)-2-pyrimidinyl]amino]phenol] | 23.5
CCOC(=O)c1cccc(Nc2nccc(-c3cccnc3)n2)c1 [3-[[4-(3-Pyridinyl)-2-pyrimidinyl]amino]benzoic acid, ethyl ester] | 20.3
Cc1cccc(Nc2nccc(-c3cc(C)oc3C)n2)c1 [4-(2,5-Dimethyl-3-furanyl)-N-(3-methylphenyl)-2-pyrimidinamine] | 28.5
CCc1ccc(Nc2nccc(-c3cc(C)oc3C)n2)cc1 [4-(2,5-Dimethyl-3-furanyl)-N-(4-ethylphenyl)-2-pyrimidinamine] | 19.2
Cc1cnc(Nc2ccccc2)nc1-c1ccco1 [4-(2-Furanyl)-5-methyl-N-phenyl-2-pyrimidinamine] | 17.7
COc1ccc(Nc2nccc(-c3ccco3)n2)cc1 [4-(2-Furanyl)-N-(4-methoxyphenyl)-2-pyrimidinamine] | < 48
FC(F)(F)c1cccc(Nc2nccc(-c3ccco3)n2)c1 [4-(2-Furanyl)-N-[3-(trifluoromethyl)phenyl]-2-pyrimidinamine] | < 48
c1ccc(Nc2nccc(-c3ccco3)n2)cc1 [4-(2-Furanyl)-N-phenyl-2-pyrimidinamine] | 48
FC(F)(F)c1cccc(Nc2nccc(-c3ccccn3)n2)c1 [4-(2-Pyridinyl)-N-[3-(trifluoromethyl)phenyl]-2-pyrimidinamine] | 2.9
FC(F)(F)c1cccc(Nc2nccc(-c3cccnc3)n2)c1 [4-(3-Pyridinyl)-N-[3-(trifluoromethyl)phenyl]-2-pyrimidinamine, hydrochloride] | 0.7
Cc1cc(C)c(Nc2nccc(-c3ccncc3)n2)c(C)c1 [4-(4-Pyridinyl)-N-(2,4,6-trimethylphenyl)-2-pyrimidinamine] | 10.5
FC(F)(F)c1cccc(Nc2nccc(-c3ccncc3)n2)c1 [4-(4-Pyridinyl)-N-[3-(trifluoro-methyl)phenyl]-2-pyrimidinamine] | 32
Cc1cc(-c2ccc(C)s2)nc(Nc2ccccc2)n1 [4-Methyl-6-(5-methyl-2-thienyl)-N-phenyl-2-pyrimidinamine] | 24.8
Cc1cc(-c2ccccn2)nc(Nc2ccccc2)n1 [4-Methyl-N-phenyl-6-(2-pyridinyl)-2-pyrimidinamine] | 26.8
COc1ccc(Nc2nccc(-c3cc[n+](C)cc3)n2)cc1 [4-[2-[(4-Methoxyphenyl)amino]-4-pyrimidinyl]-1-methylpyridinium, iodide] | 33.3
CCOC(=O)c1ccc(Nc2nccc(-c3cccnc3)n2)cc1 [4-[[4-(3-Pyridinyl)-2-pyrimidinyl]amino]-benzoic acid, ethyl ester] | 12.4

Other lines, results leading:

IC50 [µM] | SMILES
8.1 | CC(=NNC(N)=O)c1ccc(Nc2nccc(-c3cccnc3)n2)cc1 [2-[1-[4-[[4-(3-Pyridinyl)-2-pyrimidinyl]amino]phenyl]ethylidene]hydrazinecarboxamide]
7.6 | O=C(O)c1ccc(Nc2nccc(-c3cccnc3)n2)cc1 [4-[[4-(3-Pyridinyl)-2-pyrimidinyl]amino]benzoic acid]
5.1 | CON=C(C)c1ccc(Nc2nccc(-c3cccnc3)n2)cc1 [1-[4-[[4-(3-Pyridinyl)-2-pyrimidinyl]amino]phenyl]ethanone, O-methyloxime]
4.5 | NS(=O)(=O)c1ccc(Nc2nccc(-c3ccccn3)n2)cc1 [4-[[4-(2-Pyridinyl)-2-pyrimidinyl]amino]-benzenesulfonamide]
4.1 | CC(=O)c1cccc(Nc2nccc(-c3cccnc3)n2)c1 [1-[3-[[4-(3-Pyridinyl)-2-pyrimidinyl]amino]-phenyl]ethanone]
4.1 | Cc1cc(C)cc(Nc2nccc(-c3cc(C)oc3C)n2)c1 [4-(2,5-Dimethyl-3-furanyl)-N-(3,5-dimethylphenyl)-2-pyrimidinamine]
3.5 | Cc1cccc(Nc2nccc(-c3ccco3)n2)c1 [4-(2-Furanyl)-N-(3-methylphenyl)-2-pyrimidinamine]
3 | CCOC(=O)c1cccc(Nc2nccc(-c3ccccn3)n2)c1 [3-[[4-(2-Pyridinyl)-2-pyrimidinyl]amino]benzoic acid, ethyl ester]
3 | c1ccc(Nc2nccc(-c3c[nH]c4ccccc34)n2)cc1 [4-(1H-Indol-3-yl)-N-phenyl-2-pyrimidinamine]
2.2 | Cc1cccc(Nc2nccc(-c3cc4ccccc4[nH]3)n2)c1 [4-(1H-Indol-2-yl)-N-(3-methylphenyl)-2-pyrimidinamine]
2.2 | c1coc(-c2ccnc(Nc3ccc(-n4ccnc4)cc3)n2)c1 [4-(2-Furanyl)-N-[4-(1H-imidazol-1-yl)phenyl]-2-pyrimidinamine]
2 | Cc1cc(-c2ccnc(Nc3ccccc3)n2)c(C)o1 [4-(2,5-Dimethyl-3-furanyl)-N-phenyl-2-pyrimidinamine]
2 | Cc1cccc(Nc2nccc(-c3ccc(C)o3)n2)c1 [4-(5-Methyl-2-furanyl)-N-(3-methylphenyl)-2-pyrimidinamine]
1.8 | CC(=O)Nc1ccc(Nc2nccc(-c3cccnc3)n2)cc1C
1.8 | CN1CCN(c2ccc(Nc3nccc(-c4ccco4)n3)cc2)CC1 [4-(2-Furanyl)-N-[4-(4-methyl-1-piperazinyl)phenyl]-2-pyrimidin-amine]
1.2 | COc1cccc(Nc2nccc(-c3cc4ccccc4o3)n2)c1 [4-(2-Benzofuranyl)-N-(3-methoxyphenyl)-2-pyrimidinamine]
0.8 | c1cc(Nc2nccc(-c3ccco3)n2)cc(-n2ccnc2)c1 [4-(2-Furanyl)-N-[3-(1H-imidazol-1-yl)phenyl]-2-pyrimidinamine]
0.7 | NS(=O)(=O)c1cccc(Nc2nccc(-c3ccccn3)n2)c1 [3-[[4-(2-Pyridinyl)-2-pyrimidinyl]amino]benzenesulfonamide]
0.5 | NS(=O)(=O)c1cccc(Nc2nccc(-c3ccncc3)n2)c1 [3-[[4-(4-Pyridinyl)-2-pyrimidinyl]-amino]benzenesulfonamide]
0.3 | COc1cccc(Nc2nccc(-c3ccco3)n2)c1 [4-(2-Furanyl)-N-(3-methoxyphenyl)-2-pyrimidinamine]
0.2 | NS(=O)(=O)c1cccc(Nc2nccc(-c3cccnc3)n2)c1 [3-[[4-(3-Pyridinyl)-2-pyrimidinyl]amino]benzenesulfonamide]

same assay, conditions: concentration causing 50% inhibition of histamine release, by linear regression; active if IC50 ≦ 48 µM; read-out: IC50

IC50 [µM] | SMILES
3 | Cc1cccc(Nc2nccc(-c3ccco3)n2)c1 [4-(2-Furanyl)-N-[3-(methylphenyl)]-2-pyrimidinamine, sulfate]

same assay, conditions: concentration causing 50% inhibition of histamine release, by linear regression; active if IC50 ≦ 48 µM; sulfate

SMILES | IC50 [µM]
Cc1cnc(Nc2ccccc2)nc1-c1ccco1 [4-(2-Furanyl)-5-methyl-N-phenyl-2-pyrimidinamine, sulfate] | 5
FC(F)(F)c1cccc(Nc2nccc(-c3ccccn3)n2)c1 [4-(2-Pyridinyl)-N-[3-(trifluoromethyl)phenyl]-2-pyrimidinamine, sulfate] | 3
FC(F)(F)c1cccc(Nc2nccc(-c3cccnc3)n2)c1 [4-(3-Pyridinyl)-N-[3-(trifluoromethyl)phenyl]-2-pyrimidinamine, sulfate] | 2.6
FC(F)(F)c1cccc(Nc2nccc(-c3ccncc3)n2)c1 [4-(4-Pyridinyl)-N-[3-(trifluoromethyl)phenyl]-2-pyrimidinamine, sulfate] | < 48
